Results reported in patent publication US7892755B2, “Screening method” (Takeda Pharmaceutical Company Limited, priority 2004, dated 2011).

How the values were obtained:
Assay type in all cases: cell-based
control CHO-K1 cells = assay: Changes in intracellular calcium levels on FLIPR, control CHO-K1 cells with only expression vector pAKKO-111H
Protocol: (§1) The CHO-K1 cell line (purchased from ATCC) was incubated in HAM F-12 medium (Invitrogen) supplemented with 10% fetal calf serum, unless otherwise indicated. On the day before transfection, the cells were inoculated at 4.5×10^5/10 cm^2 and incubated at 37° C. for 15 hours or more in a CO2 incubator adjusted to 5% CO2 concentration. Using Lipofectamine reagent (Invitrogen), transfection was performed according to modifications of the procedure attached to the reagent. When a 6-well plate was used as the incubator, the transfection was performed as follows. Two tubes each having a 1.5 ml volume were prepared and 100 μl each of Opti-MEM medium (Invitrogen) was dispensed in each tube. Next, 1 μg of the GPR35 expression vector obtained in REFERENCE EXAMPLE 1 and 0.5 μg of Gα15 expression vector (Guthrie cDNA Resource Center) were incorporated into one tube and in another tube, 6 μl of Lipofectamine reagent was charged, which were then mixed together. The mixture was settled for 20 minutes at room temperature. To the solution, 800 μl of Opti-MEM medium was added and the resulting solution mixture for transfection was added to the CHO-K1 cells, which had been previously washed with Opti-MEM medium. The cells were then incubated in a CO2 incubator for 6 hours. After the incubation, the cells were rinsed with PBS (Invitrogen), then detached by 0.05% trypsin-EDTA solution (Invitrogen) and recovered by centrifugal operation. The cells obtained were counted and diluted to 5×10^4 cells per 100 μl of the medium. The dilution was dispensed to a black walled 96-well plate (Costar) at 100 μl per well, followed by incubation overnight in a CO2 incubator. Various test samples were added to the CHO-K1 cells, in which the receptor was transiently expressed, by the transfection procedure described above, whereby changes in intracellular calcium levels were assayed on a FLIPR (Molecular Device).
(§2) To assay the changes in intracellular calcium levels on FLIPR, the following pretreatment was made. First, an assay buffer was prepared to add fluorescence dye Fluo-3AM (DOJIN) to the cells, or to wash the cells immediately before the FLIPR assay. A solution was prepared by adding 20 ml of 1M HEPES (pH 7.4) (DOJIN) to 1000 ml of HBSS (Invitrogen) (hereinafter HBSS/HEPES solution). To the solution, there was added 10 ml of a solution obtained by dissolving 710 mg of Probenecid (Sigma) in 5 ml of 1N NaOH and further adding 5 ml of HBSS/HEPES solution thereto and mixing them. The resulting solution was used as an assay buffer. Next, 50 μg of Fluo-3AM was dissolved in 21 μl of DMSO (DOJIN), and an equal volume of 20% pluronic acid (Molecular Probes) was added to the solution. After mixing them, the mixture was added to 10.6 ml of an assay buffer supplemented with 105 μl of fetal calf serum to give a fluorescence dye solution. After the medium for the transfected CHO-K1 cells was removed, the fluorescence dye solution was immediately dispensed at 100 μl each per well and incubation was carried out in a CO2 incubator for an hour to take up the fluorescence dye into the cells. The incubated cells were washed with the assay buffer described above and set on FLIPR. Test samples to be added to the receptor-expressed CHO-K1 cells were prepared using the assay buffer and simultaneously set on FLIPR.
After the pretreatment described above was made, changes in intracellular calcium levels by the addition of various test samples were assayed on FLIPR. […]

GPR35 [1] = target: T1, GPR35 (Homo sapiens, UniProt Q9HC97, S294R); assay: Changes in intracellular calcium levels on FLIPR, CHO-K1 cells transiently co-expressing GPR35 and Gα15; parameters: The resulting fragment (ca. 1 kb) was introduced into vector pAKKO-111; expressed in transfected cells; host or cells: CHO-K1 (ATCC), transient transfection; settings: Fluo-3AM, 0.3-10 μM shown for DNQX and ellagic acid (FIG. 1, 2)
T1 sequence (Q9HC97 whole entry S294R, the tested form may be a part): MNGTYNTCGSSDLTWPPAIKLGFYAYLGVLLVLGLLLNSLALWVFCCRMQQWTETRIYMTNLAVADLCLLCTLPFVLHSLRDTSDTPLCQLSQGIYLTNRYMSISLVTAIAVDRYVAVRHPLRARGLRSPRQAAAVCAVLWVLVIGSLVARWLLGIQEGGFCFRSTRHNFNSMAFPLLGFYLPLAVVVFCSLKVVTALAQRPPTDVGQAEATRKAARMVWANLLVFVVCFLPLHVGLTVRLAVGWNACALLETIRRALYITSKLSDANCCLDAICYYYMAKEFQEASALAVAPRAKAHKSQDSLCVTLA
Protocol: as §1, §2
After the pretreatment described above was made, changes in intracellular calcium levels by the addition of various test samples were assayed on FLIPR.

mouse GPR35 = target: T2, mouse GPR35 (Mus musculus, UniProt Q9ES90, D300Y/S286F); assay: Reactivity on FLIPR, CHO-K1 cells transfected with mouse GPR35 expression vector
T2 construct: the digestion product was inserted into plasmid vector pAKKO-111H; expressed in transfected cells; host or cells: CHO-K1 cells
T2 sequence (Q9ES90 whole entry S286F/D300Y): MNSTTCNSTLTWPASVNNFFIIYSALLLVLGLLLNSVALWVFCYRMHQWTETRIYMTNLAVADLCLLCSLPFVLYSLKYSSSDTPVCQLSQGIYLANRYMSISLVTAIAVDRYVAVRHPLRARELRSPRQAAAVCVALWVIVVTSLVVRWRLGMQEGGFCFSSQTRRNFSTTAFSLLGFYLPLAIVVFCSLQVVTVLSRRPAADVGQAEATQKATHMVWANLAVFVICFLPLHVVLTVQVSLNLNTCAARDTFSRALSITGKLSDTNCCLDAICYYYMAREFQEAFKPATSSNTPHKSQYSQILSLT
Protocol: The CHO-K1 cell line (purchased from ATCC) was incubated in HAM F-12 medium (Invitrogen) supplemented with 10% fetal calf serum, unless otherwise indicated. On the day before transfection, the cells were inoculated at 4.5×10^5/10 cm^2 and incubated at 37° C. for 15 hours or more in a CO2 incubator adjusted to 5% CO2 concentration. Using Lipofectamine reagent (Invitrogen), transfection was performed according to modifications of the procedure attached to the reagent. When a 6-well plate was used as the incubator, the transfection was performed as follows. Two tubes each having a 1.5 ml volume were prepared and 100 μl each of Opti-MEM medium (Invitrogen) was dispensed in each tube. […] The cells obtained were counted and diluted to 5×10^4 cells per 100 μl of the medium. […]
To assay the changes in intracellular calcium levels on FLIPR, the following pretreatment was made. First, an assay buffer was prepared to add fluorescence dye Fluo-3AM (DOJIN) to the cells, or to wash the cells immediately before the FLIPR assay. […] After mixing them, the mixture was added to 10.6 ml of an assay buffer supplemented with 105 μl of fetal calf serum to give a fluorescence dye solution. […]

GPR35 [2] = target: T1, GPR35; assay: Changes in intracellular calcium levels on FLIPR, CHO cell line stably co-expressing human GPR35 and Gα16; parameters: expressed in transfected cells
Protocol: The Gα16-stably expressed cell line (Gα16/CHO cell line) as a host cell was prepared by transfecting the Gα16 expression vector (Guthrie cDNA Resource Center) into CHO cells in a conventional manner and incubating at 37° C. under 5% CO2 in αMEM medium (containing nucleic acid; Invitrogen) supplemented with 10% fetal calf serum (Invitrogen), 50 units/ml penicillin/50 ug/ml streptomycin (CAMBREX) and 1 mg/ml geneticin (Invitrogen). The cells that were incubated for 2 days in αMEM medium (containing nucleic acid) supplemented only with 10% fetal calf serum charged in a 75 cm^2 flask were used for the transfection. The transfection was carried out using Lipofectamine reagent (Invitrogen) by a modification of the protocol attached to the reagent. First, 2 centrifuge tubes each having a 15 ml volume were prepared and 600 μl each of Opti-MEM medium (Invitrogen) was dispensed in each tube. Next, 4.8 μg of the expression vector was charged in one tube and in another tube 36 μl of Lipofectamine reagent was charged, which were mixed together. The mixture was settled for 20 minutes at room temperature. […] The cells obtained were counted and diluted with αMEM medium (containing no nucleic acid; Invitrogen) supplemented only with 10% dialyzed fetal calf serum to have 0.3, 1.5 and 7.5 cells per 100 μl of the medium. […]

reactivity of mouse GPR35 (FLIPR) (mouse GPR35)	intracellular calcium levels (GPR35 [2])	SMILES	response (increased intracellular calcium levels) in control cells (control CHO-K1 cells)	response (increased intracellular calcium levels) (GPR35 [1])
		O=C1N=c2cc([N+](=O)[O-])cc([N+](=O)[O-])c2=NC1=O [5,7-dinitroquinoxaline-2,3-dione]	not observed	dose-dependently responded (increased intracellular calcium levels)
		N#Cc1cc2c(cc1[N+](=O)[O-])=NC(=O)C(=O)N=2 [6-cyano-7-nitroquinoxaline-2,3-dione]	not observed	dose-dependently responded (increased intracellular calcium levels)
responsive	increased	O=c1oc2c(O)c(O)cc3c(=O)oc4c(O)c(O)cc1c4c23 [ellagic acid]	not observed	dose-dependently responded (increased intracellular calcium levels)
